What was measured:
FLT-3 = biological target: T1, FLT-3 (Homo sapiens, UniProt P36888); experiment: Inhibition of FLT-3, radiometric filter-binding assay; assay type: biochemical; conditions: 90 μM ATP, 0.5 mg/mL pE4Y, room temperature
T1 construct: 0.02% BSA and 3 nM FLT-3
T1 sequence (P36888 27-993): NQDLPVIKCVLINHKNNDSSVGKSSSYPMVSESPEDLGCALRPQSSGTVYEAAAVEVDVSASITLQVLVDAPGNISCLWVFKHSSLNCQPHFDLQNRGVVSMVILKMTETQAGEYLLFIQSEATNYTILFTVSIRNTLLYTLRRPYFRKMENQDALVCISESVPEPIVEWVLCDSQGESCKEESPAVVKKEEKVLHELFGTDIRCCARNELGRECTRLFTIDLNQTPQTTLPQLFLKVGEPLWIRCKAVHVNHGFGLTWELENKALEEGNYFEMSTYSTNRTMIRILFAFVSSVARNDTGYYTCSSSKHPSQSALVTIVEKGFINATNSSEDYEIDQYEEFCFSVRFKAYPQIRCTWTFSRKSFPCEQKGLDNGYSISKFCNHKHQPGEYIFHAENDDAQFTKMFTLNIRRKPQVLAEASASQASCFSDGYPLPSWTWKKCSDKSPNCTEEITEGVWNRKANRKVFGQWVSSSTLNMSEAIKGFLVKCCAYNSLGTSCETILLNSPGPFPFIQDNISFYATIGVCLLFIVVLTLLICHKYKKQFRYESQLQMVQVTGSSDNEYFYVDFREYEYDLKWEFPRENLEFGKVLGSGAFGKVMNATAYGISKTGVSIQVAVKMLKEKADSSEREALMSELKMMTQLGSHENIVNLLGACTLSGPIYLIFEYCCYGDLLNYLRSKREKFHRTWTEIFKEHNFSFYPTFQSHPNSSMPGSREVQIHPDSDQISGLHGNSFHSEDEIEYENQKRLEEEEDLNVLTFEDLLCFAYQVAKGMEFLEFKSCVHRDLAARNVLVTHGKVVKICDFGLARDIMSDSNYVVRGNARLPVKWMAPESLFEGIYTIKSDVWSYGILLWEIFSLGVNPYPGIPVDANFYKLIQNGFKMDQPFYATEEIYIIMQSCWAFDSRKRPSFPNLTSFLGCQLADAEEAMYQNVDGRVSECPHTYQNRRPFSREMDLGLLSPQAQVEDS
Description: Compounds were screened for their ability to inhibit FLT-3 activity using a radiometric filter-binding assay. This assay monitors the ^33P incorporation into a substrate poly(Glu, Tyr) 4:1 (pE4Y). Reactions were carried out in a solution containing 100 mM HEPES (pH 7.5), 10 mM MgCl2, 25 mM NaCl, 1 mM DTT, 0.01% BSA and 2.5% DMSO. Final substrate concentrations in the assay were 90 μM ATP and 0.5 mg/mL pE4Y (both from Sigma Chemicals, St Louis, Mo.). The final concentration of compounds is generally between 0.01 and 5 μM. Typically, a 12-point titration was conducted by preparing serial dilutions from 10 mM DMSO stock of test compound. Reactions were carried out at room temperature.
Two assay solutions were prepared. Solution 1 contains 100 mM HEPES (pH 7.5), 10 mM MgCl2, 25 mM NaCl, 1 mg/ml pE4Y and 180 μM ATP(containing 0.3 μCi of [γ-^33P]ATP for each reaction). Solution 2 contains 100 mM HEPES (pH 7.5), 10 mM MgCl2, 25 mM NaCl, 2 mM DTT, 0.02% BSA and 3 nM FLT-3. The assay was run on a 96 well plate by mixing 50 μL each of Solution 1 and […] of the test compounds. The reaction was initiated with Solution2. After incubation for 20 minutes at room temperature, the reaction was stopped with 50 μL of 20% TCA containing 0.4 mM of ATP. All of the reaction volume was then transferred to a filter plate and washed with 5% TCA by a Harvester9600 from TOMTEC (Hamden, Conn.). The amount of ^33P incorporation into pE4y was analyzed by a Packard TopCount Microplate Scintillation Counter (Meriden, Conn.). The data was fitted using Prism software to get an IC50 or Ki.

GSK-3β, (AA 1-420) = GSK-3β, (AA 1-420) (Homo sapiens, UniProt P49841); experiment: GSK-3 inhibition assay, coupled enzyme system; assay type: biochemical; conditions: 20 μM ATP, 300 μM peptide, 20 nM GSK-3b, 30° C.; read-out: Ki values (GSK3)
Description: Compounds of the present invention were screened for their ability to inhibit GSK-3β, (AA 1-420) activity using a standard coupled enzyme system (Fox et al., Protein Sci. 1998, 7, 2249). Reactions were carried out in a solution containing 100 mM HEPES (pH 7.5), 10 mM MgCl2, 25 mM NaCl, 300 μM NADH, 1 mM DTT and 1.5% DMSO. Final substrate concentrations in the assay were 20 μM ATP (Sigma Chemicals, St Louis, Mo.) and 300 μM peptide (American Peptide, Sunnyvale, Calif.). Reactions were carried out at 30° C. and 20 nM GSK-3b. Final concentrations of the components of the coupled enzyme system were 2.5 mM phosphoenolpyruvate, 300 μM NADH, 30 μg/ml pyruvate kinase and 10 μg/ml lactate dehydrogenase.
An assay stock buffer solution was prepared containing all of the reagents listed above with the exception of ATP and the test compound of the present invention. The assay stock buffer solution (175 μl) was incubated in a 96 well plate with 5 μl of the test compound of the present invention at final concentrations spanning 0.002 μM to 30 μM at 30° C. for 10 min. Typically, a 12 point titration was conducted by preparing serial dilutions (from 10 mM compound stocks) with DMSO of the test compounds of the present invention in daughter plates. The reaction was initiated by the addition of 20 μl of ATP (final concentration 20 μM). Rates of reaction were obtained using a Molecular Devices Spectramax plate reader (Sunnyvale, Calif.) over 10 min at 30° C. The Ki values were determined from the rate data as a function of inhibitor concentration.

Sequence of GSK-3β, (AA 1-420) (P49841 whole entry, the tested form may be a part): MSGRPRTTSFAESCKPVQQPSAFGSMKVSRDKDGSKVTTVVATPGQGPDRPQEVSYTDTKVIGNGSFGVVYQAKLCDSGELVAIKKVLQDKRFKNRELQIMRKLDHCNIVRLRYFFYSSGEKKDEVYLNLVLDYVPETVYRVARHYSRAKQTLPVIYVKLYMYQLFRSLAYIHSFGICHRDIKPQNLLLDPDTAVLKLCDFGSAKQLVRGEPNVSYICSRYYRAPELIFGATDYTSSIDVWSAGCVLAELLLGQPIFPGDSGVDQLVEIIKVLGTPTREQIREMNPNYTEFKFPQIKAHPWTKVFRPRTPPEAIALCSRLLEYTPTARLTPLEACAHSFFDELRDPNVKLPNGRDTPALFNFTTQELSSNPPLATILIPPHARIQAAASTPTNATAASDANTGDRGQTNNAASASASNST

| SMILES | Ki (FLT-3) [nM] | Ki (GSK-3β, (AA 1-420)) [nM] |
| --- | --- | --- |
| CN1CCN(C(=O)[C@H]2C[C@H]2c2cnc3[nH]cc(-c4oncc4-c4cccc(F)c4F)c3c2)CC1 (relative stereo) [Compound 143, cis-(2-{3-[4-(2,3-Difluoro-phenyl)-isoxazol-5-yl]-1H-pyrrolo[2,3-b]pyridin-5-yl}-cyclopropyl)-(4-methyl-piperazin-1-yl)-methanone] | 200 to 1000 | 1000 to 12500 |
| Fc1cccc(-c2cnoc2-c2c[nH]c3ncccc23)c1F [Compound 1, 3-[4-(2,3-Difluoro-phenyl)-isoxazol-5-yl]-1H-pyrrolo[2,3-b]pyridine] | 200 to 1000 | 1000 to 12500 |
| Clc1cccc(-c2cnoc2-c2c[nH]c3ncccc23)c1Cl [Compound 2, 3-[4-(2,3-Dichloro-phenyl)-isoxazol-5-yl]-1H-pyrrolo[2,3-b]pyridine] | 1000 to 12500 | 1000 to 12500 |
| Fc1cccc(Cc2cnoc2-c2c[nH]c3ncccc23)c1F [Compound 36, 3-[4-(2,3-Difluoro-benzyl)-isoxazol-5-yl]-1H-pyrrolo[2,3-b]pyridine] | 1000 to 12500 | 200 to 1000 |
| Fc1cccc(-c2cnoc2-c2c[nH]c3ncc(Br)cc23)c1F [Compound 37, 5-Bromo-3-[4-(2,3-difluoro-phenyl)-isoxazol-5-yl]-1H-pyrrolo[2,3-b]pyridine] |  | 200 to 1000 |
| COc1cnc2[nH]cc(-c3oncc3-c3cccc(F)c3F)c2c1 [Compound 38, 3-[4-(2,3-Difluoro-phenyl)-isoxazol-5-yl]-5-methoxy-1H-pyrrolo[2,3-b]pyridine] | < 200 | 200 to 1000 |
| Fc1ccc(-c2cnoc2-c2c[nH]c3ncccc23)c(F)c1F [Compound 40, 3-[4-(2,3,4-Trifluoro-phenyl)-isoxazol-5-yl]-1H-pyrrolo [2,3-b]pyridine] |  | 1000 to 12500 |
| Fc1c(Cl)cccc1-c1cnoc1-c1c[nH]c2ncccc12 [Compound 42, 3-[4-(3-Chloro-2-fluoro-phenyl)-isoxazol-5-yl]-1H-pyrrolo[2,3-b]pyridine] | 1000 to 12500 | 1000 to 12500 |
| Oc1cnc2[nH]cc(-c3oncc3-c3cccc(F)c3F)c2c1 [Compound 43, 3-[4-(2,3-Difluoro-phenyl)-isoxazol-5-yl]-1H-pyrrolo[2,3-b]pyridin-5-ol] | 200 to 1000 | 200 to 1000 |
| c1cnc2[nH]cc(-c3oncc3C3CCCCC3)c2c1 [Compound 47, 3-(4-Cyclohexyl-isoxazol-5-yl)-1H-pyrrolo[2,3-b]pyridine] | 200 to 1000 | 1000 to 12500 |
| Oc1cnc2[nH]cc(-c3oncc3-c3cccc(Cl)c3Cl)c2c1 [Compound 48, 3-[4-(2,3-Dichloro-phenyl)-isoxazol-5-yl]-1H-pyrrolo[2,3-b]pyridin-5-ol] | 200 to 1000 | 1000 to 12500 |
| COc1cnc2[nH]cc(-c3oncc3-c3cccc(Cl)c3Cl)c2c1 [Compound 49, 3-[4-(2,3-Dichloro-phenyl)-isoxazol-5-yl]-5-methoxy-1H-pyrrolo[2,3-b]pyridine] | 200 to 1000 | 200 to 1000 |
| CN(C)c1ccnc2[nH]cc(-c3oncc3-c3cccc(F)c3F)c12 [Compound 56, {3-[4-(2,3-Difluoro-phenyl)-isoxazol-5-yl]-1H-pyrrolo[2,3-b]pyridin-4-yl}-dimethyl-amine] | 1000 to 12500 |  |
| O=c1ccc(-c2cnc3[nH]cc(-c4oncc4-c4cccc(F)c4F)c3c2)c[nH]1 [Compound 67, 5-{3-[4-(2,3-Difluoro-phenyl)-isoxazol-5-yl]-1H-pyrrolo [2,3-b]pyridin-5-yl}-1H-pyridin-2-one] |  | < 200 |
| Fc1cccc(-c2cnoc2-c2c[nH]c3ncc(-c4ccccn4)cc23)c1F [Compound 73, 3-(4-(2,3-Difluoro-phenyl)-isoxazol-5-yl)-5-pyridin-2-yl-1H-pyrrolo[2,3-b]pyridine] | 200 to 1000 |  |
| Fc1cccnc1-c1cnc2[nH]cc(-c3oncc3-c3cccc(F)c3F)c2c1 [Compound 74, 3-[4-(2,3-Difluoro-phenyl)-isoxazol-5-yl]-5-(3-fluoro-pyridin-2-yl)-1H-pyrrolo[2,3-b]pyridine] | 1000 to 12500 |  |
| CN(C)c1ccc(-c2cnc3[nH]cc(-c4oncc4-c4cccc(F)c4F)c3c2)cc1 [Compound 88, (4-{3-[4-(2,3-Difluoro-phenyl)-isoxazol-5-yl]-1H-pyrrolo[2,3-b]pyridin-5-yl}-phenyl)-dimethyl-amine] |  | 200 to 1000 |
| CS(=O)(=O)n1ccc2cc(-c3cnc4[nH]cc(-c5oncc5-c5cccc(F)c5F)c4c3)cnc21 [Compound 97, 3′-[4-(2,3-Difluoro-phenyl)-isoxazol-5-yl]-1-methanesulfonyl-1H, 1′H-[5,5′]bi[pyrrolo[2,3-b]pyridinyl]] |  | < 200 |
| Fc1cccc(-n2cnnc2-c2c[nH]c3ncc(-c4cccnc4)cc23)c1F [Compound 113, 3-[4-(2,3-Difluoro-phenyl)-4H-[1,2,4]triazol-3-yl]-5-pyridin-3-yl-1H-pyrrolo[2,3-b]pyridine] |  | < 200 |
| Fc1cccc(-n2cnnc2-c2c[nH]c3ncc(-c4ccncc4)cc23)c1F [Compound 114, 3-[4-(2,3-Difluoro-phenyl)-4H-[1,2,4]triazol-3-yl]-5-pyridin-4-yl-1H-pyrrolo[2,3-b]pyridine] |  | < 200 |
| Cc1noc(-c2c[nH]c3ncc(-c4ccc(N5CCN(C)CC5)cc4)cc23)c1-c1cccc(F)c1F [Compound 135, 3-[4-(2,3-Difluoro-phenyl)-3-methyl-isoxazol-5-yl]-5-[4-(4-methyl-piperazin-1-yl)-phenyl]-1H-pyrrolo[2,3-b]pyridine] |  | < 200 |
| Cn1ccc2c(-c3oncc3-c3cccc(F)c3F)c[nH]c2c1=O [Compound 144, 3-[4-(2,3-Difluoro-phenyl)-isoxazol-5-yl]-6-methyl-1,6-dihydro-pyrrolo[2,3-c]pyridin-7-one] | 1000 to 12500 |  |
| O=c1[nH]ccc2c(-c3oncc3-c3cccc(F)c3F)c[nH]c12 [Compound 145, 3-[4-(2,3-Difluoro-phenyl)-isoxazol-5-yl]-1,6-dihydro-pyrrolo[2,3-c]pyridin-7-one] |  | 200 to 1000 |
| Nc1[nH]c2ncccc2c1-c1oncc1-c1cccc(F)c1F [Compound 152] | 1000 to 12500 |  |

Reference: patent publication US7446199B2, “Compositions useful as inhibitors of protein kinases” (Vertex Pharmaceuticals Incorporated, priority 2003, dated 2008)
